The record followed here is ChEMBL document CHEMBL1201862, “PubChem BioAssay data set” (2004).

The source made the active and inactive calls.

One assay addresses T1, Bcl-2-related protein A1 (Mus musculus, UniProt Q07440).
T1 sequence (Q07440 whole entry): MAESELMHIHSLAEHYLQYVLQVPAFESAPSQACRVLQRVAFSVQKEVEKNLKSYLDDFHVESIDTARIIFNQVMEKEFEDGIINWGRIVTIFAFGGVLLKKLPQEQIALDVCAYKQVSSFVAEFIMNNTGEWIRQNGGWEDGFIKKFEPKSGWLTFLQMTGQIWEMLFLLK
The class given is functional.

Assay [1] deals with T2, Ubiquitin-conjugating enzyme E2 N (Homo sapiens, UniProt P61088).
T2 sequence (P61088 whole entry): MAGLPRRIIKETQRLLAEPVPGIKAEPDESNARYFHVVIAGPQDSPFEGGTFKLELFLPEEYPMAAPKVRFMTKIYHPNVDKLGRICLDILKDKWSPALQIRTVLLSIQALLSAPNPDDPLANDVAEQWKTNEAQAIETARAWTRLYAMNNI
The class given is functional.

Assay [2] deals with T2, Ubiquitin-conjugating enzyme E2 N. The class given is functional. The source holds these as a separate data set.
Assay [3] concerns HEK293. Briefly: cells. It counts as functional, cell-based. The note with it: Homo sapiens.
Assay [4] has as its system BJ. Briefly: cells. The class given is functional, cell-based. The following applies: Homo sapiens.
For assay [5], the target named is T3, Microphthalmia-associated transcription factor (Homo sapiens, UniProt O75030).
T3 sequence (O75030 whole entry): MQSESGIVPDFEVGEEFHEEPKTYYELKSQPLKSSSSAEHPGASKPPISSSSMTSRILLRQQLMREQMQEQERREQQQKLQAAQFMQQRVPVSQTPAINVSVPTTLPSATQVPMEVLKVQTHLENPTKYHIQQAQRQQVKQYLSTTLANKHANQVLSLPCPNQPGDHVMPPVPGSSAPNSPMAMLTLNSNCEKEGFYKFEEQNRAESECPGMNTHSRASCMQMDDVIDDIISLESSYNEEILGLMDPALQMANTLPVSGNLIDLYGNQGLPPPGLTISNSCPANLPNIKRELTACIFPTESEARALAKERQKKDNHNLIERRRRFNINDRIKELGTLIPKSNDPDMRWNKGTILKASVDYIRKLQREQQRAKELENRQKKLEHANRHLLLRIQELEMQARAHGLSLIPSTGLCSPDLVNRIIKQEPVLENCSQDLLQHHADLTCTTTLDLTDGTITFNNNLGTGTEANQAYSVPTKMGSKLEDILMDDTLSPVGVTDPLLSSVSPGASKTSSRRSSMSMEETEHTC
As to the kind of experiment: TRPM1 promoter luciferase signal decrease, dose response, MITF inhibitor project, cell-based, SK-MEL-5, cherry-picked, set 3 (AID 493073).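 Further: SK-MEL-5 melanoma cells with luciferase driven by the MITF target TRPM1 promoter.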 It counts as functional.

The test system of assay [6] is HEK293. As to the kind of experiment: NOD2 signaling inhibitors in MDP-stimulated cells, cell-based, uHTS, luminescence (AID 2001). The class given is functional. The following applies: Homo sapiens.
For another assay, the system named is INS1. Briefly: beta cell apoptosis inhibitors, cytokine rescue, dose response, luminescence, retest (AID 449756).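 Further: cell death triggered by IL-1 beta plus TNF-alpha plus IFN-gamma mixture; protective hits raise ATP signal compared with cytokine alone wells.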 The class given is functional, cell-based. The following applies: Rattus norvegicus.
A short description of assay [7]: Vero E6 cell cytotoxicity, dose response, cytotoxicity control for non-replicating M. tuberculosis project, secondary assay (AID 492998). The class given is functional, VeroE6. The note with it: Vero C1008.
Assay [8] can be described thus: HepG2 cell cytotoxicity, dose response, cytotoxicity control for non-replicating M. tuberculosis project (AID 489018). It counts as functional. The note with it: Mycobacterium tuberculosis.
The subject of assay [9] is HEK293. Briefly: NOD1 signaling inhibitors, primary screen, cell-based, luminescence, uHTS (AID 1578). The following applies: Homo sapiens. It counts as functional.
Assay [10] in a line: inhibitors of SNCA 5'UTR-driven reporter translation, confirmation, H4 neuroglioma cells, luminescence (AID 1988). It counts as functional, cell-based.
A short description of another assay: cells. It counts as functional.
Assay [11] deals with Nucleotide-binding oligomerization domain-containing protein 2 (Homo sapiens, UniProt Q9HC29). Briefly: NOD2 signaling inhibitors, cell-based, luminescence, uHTS, HEK293 (AID 1566). It counts as functional.
Sequence of Nucleotide-binding oligomerization domain-containing protein 2 (Q9HC29 whole entry, the tested form may be a part): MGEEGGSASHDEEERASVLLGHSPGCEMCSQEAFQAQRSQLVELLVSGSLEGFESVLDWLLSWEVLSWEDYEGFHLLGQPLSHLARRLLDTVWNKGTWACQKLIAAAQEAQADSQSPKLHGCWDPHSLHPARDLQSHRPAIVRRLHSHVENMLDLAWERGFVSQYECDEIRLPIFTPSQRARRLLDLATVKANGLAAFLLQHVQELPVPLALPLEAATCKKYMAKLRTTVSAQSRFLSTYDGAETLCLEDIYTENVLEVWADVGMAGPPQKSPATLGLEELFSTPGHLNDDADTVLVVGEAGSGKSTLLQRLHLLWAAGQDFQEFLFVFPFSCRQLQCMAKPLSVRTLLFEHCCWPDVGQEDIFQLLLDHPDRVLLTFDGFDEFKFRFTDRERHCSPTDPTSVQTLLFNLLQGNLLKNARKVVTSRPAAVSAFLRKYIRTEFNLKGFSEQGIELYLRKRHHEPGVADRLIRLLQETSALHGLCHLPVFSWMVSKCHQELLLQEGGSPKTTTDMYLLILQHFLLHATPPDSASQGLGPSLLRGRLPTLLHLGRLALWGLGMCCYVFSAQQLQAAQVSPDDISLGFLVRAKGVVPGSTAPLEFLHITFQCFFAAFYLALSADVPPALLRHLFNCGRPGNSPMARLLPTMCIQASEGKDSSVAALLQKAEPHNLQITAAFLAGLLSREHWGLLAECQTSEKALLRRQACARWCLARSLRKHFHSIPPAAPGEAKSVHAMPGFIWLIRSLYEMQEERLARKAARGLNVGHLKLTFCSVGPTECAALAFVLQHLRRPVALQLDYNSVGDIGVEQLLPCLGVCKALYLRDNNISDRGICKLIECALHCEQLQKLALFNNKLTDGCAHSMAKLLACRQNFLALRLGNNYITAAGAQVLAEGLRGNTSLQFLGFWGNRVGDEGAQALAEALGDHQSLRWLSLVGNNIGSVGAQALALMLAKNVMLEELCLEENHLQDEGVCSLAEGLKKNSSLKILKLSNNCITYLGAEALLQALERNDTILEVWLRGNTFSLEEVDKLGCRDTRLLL
Assay [12] can be described thus: THP-1 cell cytotoxicity, dose response, cytotoxicity control for non-replicating M. tuberculosis project (AID 489025). The class given is functional.
Assay [13] has as its system HEK293. Briefly: cells. The class given is functional, cell-based. The note with it: Homo sapiens. The source holds these as a separate data set.
The subject of assay [14] is HEK293. Briefly: cells. It counts as functional, cell-based. The following applies: Homo sapiens. The source holds these as a separate data set.
Assay [15] can be described thus: cytotoxicity toward DRD oncogenic fibroblasts, dose response, cell-based, non-viral oncogenic, luminescence (AID 1934). The class given is functional. The note with it: Homo sapiens.
In assay [16] the test system is BJ. As to the kind of experiment: cytotoxicity toward BJ-TERT fibroblasts, dose response, cell-based, RAS-independent, luminescence (AID 1933). The note with it: Homo sapiens. The class given is functional.
In assay [17] the test system is BJ. Briefly: cytotoxicity toward BJ-TERT-LT-ST fibroblasts, dose response, cell-based, RAS-independent, luminescence (AID 1935).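 Further: BJ fibroblasts immortalized with TERT plus LT and ST oncogenes.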 It counts as functional. The note with it: Homo sapiens.
A short description of assay [18]: Luminescence Cell-Based Dose Response HTS to Identify Inhibitors of 5'UTR Stem-Loop Driven Prion Protein mRNA Translation in H4 Neuroglioblastoma Cells. [Related pubchem assays: 1827 (Project Summary), 1813 (Primary HTS)]. It counts as functional.
Assay [19] relates to BJ. Briefly: cytotoxicity toward Ras-transformed BJeLR fibroblasts, dose response, cell-based, alamar blue fluorescence, cherrypicked samples (AID 2631).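 Further: confirmatory dose-response assay in RAS-dependent BJ fibroblasts engineered with TERT, LT and ST, with cytotoxicity read by fluorescence.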 The class given is functional. The note with it: Homo sapiens.
The nature of assay [20]: inhibitors of firefly luciferase expression or activity, dose response, H4 neuroglioma cells, luminescence (AID 1990). It counts as functional, cell-based.
Assay [21] is described as follows: Luminescence Cell-Based Dose Response HTS to Identify Activators of Luciferase Translation or Activity in H4 […] Cells. [Related pubchem assays: 1829 (Project Summary), 1814 (Primary HTS)]. It counts as functional.
Assay [22] can be described thus: cytotoxicity in KRAS-transformed pancreatic duct cells, primary screen, cell-based, fluorescence, HTS (AID 431).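 Further: cell line used: HPDE-C7K.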 The following applies: Homo sapiens. The class given is functional.
Assay [23] is described as follows: microbe, parasite or virus in culture. It counts as functional. The note with it: Mycobacterium tuberculosis.
A short description of assay [24]: cytotoxicity in HPDE-C7 cells, cell-based, fluorescence, HTS (AID 430). It counts as functional. The following applies: Homo sapiens.
The target of another assay is Paired box protein Pax-8 (Homo sapiens, UniProt Q06710). As to the kind of experiment: inhibitors of PAX8-driven TPO luciferase reporter, dose response, RMG-I cells, cherry-pick (AID 687027).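 Further: luciferase reporter driven by Pax8 target thyroperoxidase promoter measured by SteadyGlo luminescence.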 The class given is functional, cell-based.
Sequence of Paired box protein Pax-8 (Q06710 whole entry): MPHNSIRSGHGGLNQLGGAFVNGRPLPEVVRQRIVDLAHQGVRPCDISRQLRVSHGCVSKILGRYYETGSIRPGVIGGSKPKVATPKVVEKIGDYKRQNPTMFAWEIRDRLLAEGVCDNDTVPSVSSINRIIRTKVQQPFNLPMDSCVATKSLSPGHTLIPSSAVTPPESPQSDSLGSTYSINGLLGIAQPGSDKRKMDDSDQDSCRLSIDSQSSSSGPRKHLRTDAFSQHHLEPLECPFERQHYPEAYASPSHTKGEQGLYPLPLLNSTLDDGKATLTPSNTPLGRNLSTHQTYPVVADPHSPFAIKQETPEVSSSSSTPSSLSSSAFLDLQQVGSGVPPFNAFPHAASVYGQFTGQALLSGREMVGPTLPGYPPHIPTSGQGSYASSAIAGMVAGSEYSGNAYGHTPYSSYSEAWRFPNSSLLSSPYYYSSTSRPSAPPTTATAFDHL
Assay [25] can be described thus: Luminescence Cell-Based Dose Confirmation HTS to Identify Activators of 5'UTR Stem-Loop Driven Alpha-Synuclein mRNA Translation in H4 Neuroglioblastoma Cells. [Related pubchem assays: 1829 (Project Summary), 1814 (Primary HTS)]. The class given is functional.
In a further assay the test system is H4. As to the kind of experiment: Luminescence Cell-Based Dose Response HTS to Identify Activators of 5'UTR Stem-Loop Driven Prion Protein mRNA Translation in H4 Neuroglioblastoma Cells. [Related pubchem assays: 1829 (Project Summary), 1814 (Primary HTS)]. The note with it: Homo sapiens. It counts as functional.
Another assay has as its target T4, Coagulation factor XII (Homo sapiens, UniProt P00748).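 Further: activated factor XIIa alpha cleaving a fluorogenic AMC peptide substrate; inhibitor potency from loss of enzyme activity.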
T4 sequence (P00748 whole entry): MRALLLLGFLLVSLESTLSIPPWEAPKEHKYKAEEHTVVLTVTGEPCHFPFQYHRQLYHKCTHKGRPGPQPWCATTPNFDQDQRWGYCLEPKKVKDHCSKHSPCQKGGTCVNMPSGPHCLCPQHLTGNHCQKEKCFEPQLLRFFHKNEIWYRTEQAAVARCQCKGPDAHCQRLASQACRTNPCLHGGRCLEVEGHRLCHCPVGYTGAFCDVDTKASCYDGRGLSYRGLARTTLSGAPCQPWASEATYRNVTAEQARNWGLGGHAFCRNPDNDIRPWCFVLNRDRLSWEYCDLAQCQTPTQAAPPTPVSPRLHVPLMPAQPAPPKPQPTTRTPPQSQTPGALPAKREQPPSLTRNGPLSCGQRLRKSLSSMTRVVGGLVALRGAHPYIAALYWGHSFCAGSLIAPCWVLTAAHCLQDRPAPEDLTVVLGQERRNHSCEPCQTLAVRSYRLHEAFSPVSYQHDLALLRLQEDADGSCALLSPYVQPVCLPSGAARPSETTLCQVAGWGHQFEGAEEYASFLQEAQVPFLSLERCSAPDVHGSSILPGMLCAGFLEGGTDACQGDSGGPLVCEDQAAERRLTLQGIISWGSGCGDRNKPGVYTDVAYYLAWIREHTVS
The class given is functional.

On to `COc1ccc(CN(C)C(=O)Cc2ccc(OC)c(S(=O)(=O)N3CCOCC3)c2)cc1OC`, for which the IC50 (as a rule, the concentration at which inhibition is half-maximal) is > 20 µM (inactive) on Bcl-2-related protein A1, 10.8 µM (active) in assay [1] and 12.6 µM (active) in assay [2].
Consider `O=C(N/N=C/c1ccc([N+](=O)[O-])o1)c1cc2ccccc2o1`, for which the half-inhibitory concentration (IC50) in the assay with HEK293 [3] was 16.1 µM (active); in the assay on HEK293 [6] it was 17.8 µM (inactive); in the assay “cells” it was 1.85 µM (active); in the assay with HEK293 [13], > 20 µM (inactive); in the assay with HEK293 [14], > 20 µM (inactive). Moreover, the EC50 (as a rule, the concentration giving half of the maximal effect) with BJ [4] was 10.7 µM (active); with HEK293 [9] it was 7.3 µM (active); in assay [10] it was > 120 µM (not active); in assay [11], 10.5 µM (active); in assay [15] it was 23.8 µM (active); in the assay on BJ [16], 21.2 µM (active). The concentration for a half-maximal effect (EC50) was 14.1 µM (inconclusive) in the assay with BJ [17], > 60 µM (not active) in assay [18], 4.63 µM (inconclusive) in the assay with BJ [19] and > 120 µM (not active) in assay [20]. For the same molecule, the figures for the half-maximal activity concentration (AC50) (in assay [5]; with INS1) were 5.99 µM (active) and 2.63 µM (active), respectively. Also, the CC50 in assay [7] is > 20 µM (active); in assay [8], 17 µM (active); in assay [12], 22 µM (active).
Consider `Nc1nnnn1/N=C/C(Br)=C/c1ccccc1`, for which the EC50 in the assay on BJ [4] is > 150 µM (inconclusive); in [21] it was > 120 µM (not active); in assay [22], 2.94 µM (active); in assay [24], 2.37 µM (active); in assay [25] it was 17.4 µM (active); in assay [15], 3.95 µM (active). For the same molecule, the half-maximal effective concentration (EC50) in the assay on H4 was > 120 µM (not active); in the assay on BJ [16], 5.12 µM (inconclusive); with BJ [17], > 38 µM (inconclusive). Also, the results for the half-maximal activity concentration (AC50) (in assay [5]; on Paired box protein Pax-8) were 5.44 µM (active) and 1.36 µM (active), respectively. The CC50 was 5.79 µM (active) in assay [7], 10 µM (active) in assay [8], 6.31 µM (active) in assay [23] and 5.96 µM (active) in [12]. Further, the half-inhibitory concentration (IC50) in “cells” was 5.76 µM (active).
For the molecule `CN(/N=C/c1ccc2c(c1)OCO2)c1nc(N2CCOCC2)nc(N2CCOCC2)n1`, the IC50 on Coagulation factor XII is > 50 µM (inactive).
